Data set [1] deals with S. epidermidis ATCC12228. Nature of the data set: MIC assay (broth dilution in tubes, CLSI). The data set is classed as cell-based, Staphylococcus epidermidis. To be noted: Staphylococcus epidermidis. From the text:
(§1) Staphylococcus epidermidis ATCC12228 and RP62A strains were purchased from the American Type Culture Collection (ATCC, Manassas, USA). Staphylococcus aureus ATCC29213, Escherichia coli ATCC25922 and Pseudomonas aeruginosa ATCC27853 were kindly provided by Dr. Bijie Hu at Zhongshan Hospital (Shanghai, China). S. epidermidis strains se527, se886, se847, seG203, Streptococcus pyogenes strain 144, and Streptococcus mutans strain 128 were all clinical isolates from Zhongshan Hospital and Huashan Hospital (Shanghai, China). If not stated otherwise, S. epidermidis and S. aureus strains were grown at 37°C in tryptic soy broth (TSB, Oxoid) containing 0.25% glucose, E. coli and P. aeruginosa strains were grown at 37°C in Luria-Bertani (LB, Oxoid).
(§2) MIC assays for the antibacterial activities of the compounds were performed according to the broth micro-dilution (in tubes) method of the Clinical and Laboratory Standards Institute (CLSI) of America. The Minimal Bactericidal Concentration (MBC) was obtained by subculturing 100 μl from each negative (no visible bacterial growth) tube from the MIC assay, onto substance-free Mueller-Hinton agar plates. The plates were incubated at 37°C for 24 hours, and the MBC was defined as the lowest concentration of substance which produced subcultures growing no more than five colonies on each plate.

Data set [2] relates to S. epidermidis RP62A. Description: MIC assay (broth dilution in tubes, CLSI). It counts as cell-based. As to conditions: Staphylococcus epidermidis, read-out: Minimal inhibitory concentration (MIC).
Description: as §1, §2

Data set [3] has as its system S. aureus ATCC29213. Description: MIC assay (broth dilution in tubes, CLSI). It counts as cell-based, Staphylococcus aureus. To be noted: for MIC: Staphylococcus aureus.
Description: as §1, §2

The test system of data set [4] is S. pyogenes 144. Description: MIC assay (broth dilution in tubes, CLSI). As to conditions: for MIC: Streptococcus pyogenes, S. pyogenes 144, read-out: Minimal inhibitory concentration (MIC). It counts as cell-based, Streptococcus pyogenes.
Description: as §1, §2

Data set [5] concerns S. mutans 128. Nature of the data set: MIC assay (broth dilution in tubes, CLSI). To be noted: for MIC: Streptococcus mutans, S. mutans 128, read-out: Minimal inhibitory concentration (MIC). It counts as cell-based, Streptococcus mutans.
Description: as §1, §2

Data set [6] has as its system S. epidermidis ATCC12228. Description: Minimal bactericidal concentration (MBC) assay. It counts as cell-based. To be noted: Staphylococcus epidermidis. On the procedure: as §2
Data set [7] has as its system S. epidermidis RP62A. Description: Minimal bactericidal concentration (MBC) assay. It counts as cell-based. As to conditions: Staphylococcus epidermidis; S. epidermidis RP62A; read-out: Minimal bactericidal concentration (MBC). As for the experimental part:
as §2

Data set [8] has as its target T1, YycG' protein (Staphylococcus epidermidis, UniProt Q8CU87).
T1 construct: of YycG (370aa to 610aa) was amplified by PCR; His-tag (pET28a) (N); made in house; host or cells: E. coli BL21 (pET28a, pETYycG')
Nature of the data set: Inhibition of YycG' ATPase activity / autophosphorylation (Kinase-Glo Luminescent Kinase Assay). The data set is classed as biochemical. To be noted: for inhibition at 50 µM: read-out: Inhibition of YycG' phosphorylation (decrease of ATPase activity). As for the experimental part:
The inhibitory activities of the compounds for the ATPase activity of the YycG' protein was measured using the Kinase-Glo™ Luminescent Kinase Assay (Promega, Madison, USA). Briefly, 4 μg YycG' protein was pre-incubated with a series of dilution of compounds in the reaction buffer (40 mM Tris [pH 7.5], 20 mM MgCl2, and 0.1 mg/ml BSA), at 25°C for 30 min. Then 3 μM ATP was added for another incubation of 30 min at 25°C, and Kinase-Glo™ Reagent was added to detect the rest amount of ATP, as recorded from luminescence measurements (RLU). In parallel, theYycG' protein with no addition of compounds was used as the control. The rate of inhibiting protein phosphorylation (Rp) by the compounds was calculated from equation 1:
Rp=RLU(YycG^′+compound+ATP+Reagent)−RLU(YycG^′+ATP+Reagent)/RLU(ATP+Reagent)−RLU(YycG^′+ATP+Reagent)×100% (1) MathType@MTEF@5@5@+=feaafiart1ev1aaatCvAUfKttLearuWrP9MDH5MBPbIqV92AaeXatLxBI9gBaebbnrfifHhDYfgasaacH8akY=wiFfYdH8Gipec8Eeeu0xXdbba9frFj0=OqFfea0dXdd9vqai=hGuQ8kuc9pgc9s8qqaq=dirpe0xb9q8qiLsFr0=vr0=vr0dc8meaabaqaciaacaGaaeqabaqabeGadaaakeaacqqGsbGudaWgaaWcbaGaeeiCaahabeaakiabg2da9maalaaabaGaeeOuaiLaeeitaWKaeeyvauLaeiikaGIaeeywaKLaeeyEaKNaee4yamMafe4raCKbauaacqGHRaWkcqqGJbWycqqGVbWBcqqGTbqBcqqGWbaCcqqGVbWBcqqG1bqDcqqGUbGBcqqGKbazcqGHRaWkcqqGbbqqcqqGubavcqqGqbaucqGHRaWkcqqGsbGucqqGLbqzcqqGHbqycqqGNbWzcqqGLbqzcqqGUbGBcqqG0baDcqGGPaqkcqGHsislcqqGsbGucqqGmbatcqqGvbqvcqGGOaakcqqGzbqwcqqG5bqEcqqGJbWycuqGhbWrgaqbaiabgUcaRiabbgeabjabbsfaujabbcfaqjabgUcaRiabbkfasjabbwgaLjabbggaHjabbEgaNjabbwgaLjabb6gaUjabbsha0jabcMcaPaqaaiabbkfasjabbYeamjabbwfavjabcIcaOiabbgeabjabbsfaujabbcfaqjabgUcaRiabbkfasjabbwgaLjabbggaHjabbEgaNjabbwgaLjabb6gaUjabbsha0jabcMcaPiabgkHiTiabbkfasjabbYeamjabbwfavjabcIcaOiabbMfazjabbMha5jabbogaJjqbbEeahzaafaGaey4kaSIaeeyqaeKaeeivaqLaeeiuaaLaey4kaSIaeeOuaiLaeeyzauMaeeyyaeMaee4zaCMaeeyzauMaeeOBa4MaeeiDaqNaeiykaKcaaiabgEna0kabigdaXiabicdaWiabicdaWiabcwcaLiaaxMaacaWLjaWaaeWaaeaacqaIXaqmaiaawIcacaGLPaaaaaa@A46C@
IC50 (the concentration of inhibition of 50% YycG' protein autophosphorylation) was obtained by using the Origin v7.0 software (OriginLab, Northampton, USA).

Data set [9] relates to SrrB'. Description: Inhibition of SrrB' autophosphorylation (Kinase-Glo). It counts as biochemical, S. epidermidis. As to conditions: compound 50 μM, 4 μg protein, 3 μM ATP.
The nature of data set [10]: Erythrocyte hemolysis assay.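 As to hemolysis: compounds tested at their MIC and at 4× MIC.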 The data set is classed as cell-based, human. As to conditions: human, 1 hour, 37°C. As for the experimental part:
(§3) Cytotoxicity of the antibacterial compounds on cultured Vero cell was measured by using the Cell Proliferation Kit I (MTT) (Roche, Indianapolis, USA) according to the manufacturer's protocol. Addition of DMSO (1%) in the medium produced a slight cytotoxicity on Vero cell, which could easily be corrected for. Each assay was performed in quadruplicate and repeated three times. The results were converted to percentage of the control (cells only treated with 1% DMSO) and CC50 (concentrations that produce a 50% cytotoxicity effect on Vero cell) was calculated by the Origin v7.0 software (OriginLab, Northampton, USA). Hemolytic activities of the compounds were determined by using healthy human erythrocytes. The erythrocytes were washed three times in sterile saline and resuspended to 5% prior to the assay. […] Cells without compound treatment and cells with 1% Triton-100 treatment were used as 0% and 100% hemolysis controls, respectively. The cell suspensions were incubated for 1 hour at 37°C and centrifuged at 1000×g for 10 min. Volumes of 100 μl supernatants were transferred to another sterile plate and hemoglobin release from the cells was determined at 570 nm. […] The hemolysis assays were repeated twice.

For data set [11], the system named is healthy human erythrocytes. Nature of the data set: Erythrocyte hemolysis assay.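 As to hemolysis: compounds tested at their MIC and at 4× MIC.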 It counts as cell-based. As for the experimental part: as §3
Data set [12] is described as follows: Cytotoxicity on Vero cell (MTT, Cell Proliferation Kit I). It counts as cell-based, African Green-monkey. As to conditions: African green monkey, highest concentration tested 200 μM. On the procedure: as §3
The subject of data set [13] is Vero cell. Described as above. It counts as cell-based, African Green-monkey. As to conditions: highest concentration tested 200 μM. As for the experimental part: as §3
Data set [14] addresses T1, YycG' protein. Nature of the data set: Compound-YycG' protein binding assay (SPR, Biacore 3000). To be noted: SPR. From the text:
The YycG' fragment containing the cytoplasmic signal domains (the HATPase_c and HisKA domain, see Figure 1A) of YycG (370aa to 610aa) was amplified by PCR (with the chromosomal DNA of S. epidermidis ATCC12228 as the template, and (5' […] 3') and (5' […] 3') as the primers. Subsequently, the fragment was digested with BamHI and XholI (TAKARA, Japan) and ligated into the corresponding sites of pET28a (Promega, Madison, USA) to obtain pETYycG'. The expressed YycG' protein was purified with the ProBond™ Purification System (Invitrogen, California, USA), according to the manufacturer's protocol.
The in vitro binding affinities of the inhibitor compounds to the YycG' protein was determined using surface plasmon resonance (SPR) biosensor technology on the dual flow cell Biacore 3000 instrument (Biacore AB, Uppsala, Sweden) with a similar method as described in our previous study. Immobilization of the YycG' protein to the hydrophilic carboxymethylated dextran matrix of the sensor chip CM5 (Biacore) was carried out by the standard primary amine coupling reaction. […] The equilibrium constants (KD) evaluating the protein-ligand binding affinity were determined by the steady state or the kinetic state affinity fitting model encoded in the Biacore analysis software.

Where [15] appears, read: ATCC12228, Table 2, as tested on S. epidermidis ATCC 12228, read-out: MICs.
Where [16] appears, read: S. epidermidis ATCC12228 (non-biofilm-forming strain), read-out: Minimal inhibitory concentration (MIC).
[17] abbreviates: S. epidermidis RP62A (biofilm-forming strain).
[18] abbreviates: S. aureus ATCC29213, read-out: Minimal inhibitory concentration (MIC).
The mark [19] stands for this setting: 4 μg YycG' protein, 3 μM ATP, read-out: IC50 for YycG'.
Where [20] appears, read: compound 50 μM, 4 μg protein, 3 μM ATP.
[21] abbreviates: erythrocytes (5% suspension), at 4 × MIC (number in parenthesis).
Where [22] appears, read: erythrocytes (5% suspension), at MIC for S. epidermidis ATCC12228.

pIC50: −log10 of the molar value. In brackets after ≈: the same amount, converted by molar mass. Where two headings read alike, the source gives them in different places.

T1 sequence (Q8CU87 370-610): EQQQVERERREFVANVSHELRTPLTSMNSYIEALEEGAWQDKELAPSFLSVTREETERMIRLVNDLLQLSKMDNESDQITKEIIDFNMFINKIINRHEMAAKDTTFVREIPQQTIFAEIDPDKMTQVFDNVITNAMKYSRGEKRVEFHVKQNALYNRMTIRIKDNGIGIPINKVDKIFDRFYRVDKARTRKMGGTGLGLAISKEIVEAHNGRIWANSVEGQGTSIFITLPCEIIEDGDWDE

Take `CCc1ccccc1N=C1SC(=Cc2ccc(OCC(O)O)c(OC)c2)C(=O)N1c1ccccc1CC` [Compound 2]: the MIC in data set [1] (setting [15]) was 25 µM (≈ 13 µg/mL); in data set [1] (setting [16]), 25 µM (≈ 13 µg/mL); in [2] (setting [17]), 25 µM (≈ 13 µg/mL); in data set [3] (setting [18]), 25 µM (≈ 13 µg/mL); in [4] it was 100 µM (≈ 51.9 µg/mL); in data set [5], 100 µM (≈ 51.9 µg/mL). Further, the “Inhibitory effect against S. aureus” value in data set [3] is on record as “effective”. Moreover, the “Inhibitory effect against Streptococcus pyogenes” value in data set [4] is on record as “effective”. Besides, the “Inhibitory effect against Streptococcus mutans” value in data set [5] was “effective”. Further, the MBC in data set [6] and in data set [7] was 100 µM (≈ 51.9 µg/mL) each time. The pIC50 in data set [8] (setting [19]) was 4.54. In [8] (setting [20]), the inhibition at 50 µM amounted to 61%. In addition, the “Inhibition of SrrB' phosphorylation” value in data set [9] amounted to 3%. Besides, the results for the hemolysis at 1 h in data set [10] (setting [21]) and in data set [10] (setting [22]) were approximately 6% and 2.3%, respectively. Also, the Hemolysis in data set [11] (at 4 × MIC (number in parenthesis), 1 hour, 37°C) amounted to 6.1%. The Hemolytic activity in data set [11] (at the highest concentration (200 μM)) was ~ 16 % of the zero control.
For the molecule `CC(=O)Nc1ccccc1C(=O)Nc1ccc2cc3ccc(NC(=O)c4ccccc4NC(C)=O)cc3nc2c1` [Compound 3], the MIC in [1] (setting [15]) is 12.5 µM (≈ 6.64 µg/mL); in [1] (setting [16]), 12.5 µM (≈ 6.64 µg/mL); in [2] (setting [17]), 25 µM (≈ 13.3 µg/mL); in data set [3] (setting [18]), 100 µM (≈ 53.2 µg/mL); in data set [4], 25 µM (≈ 13.3 µg/mL); in data set [5], more than 200 µM. Moreover, the “Inhibitory effect against S. aureus” value in [3] is on record as “inhibited the growth”. For the same molecule, the “Inhibitory effect against Streptococcus pyogenes” value in data set [4] is on record as “inhibited the growth”. Also, the results for the MBC in data set [6] and in data set [7] were 50 µM (≈ 26.6 µg/mL) and 100 µM (≈ 53.2 µg/mL), respectively. Moreover, the negative-log IC50 (pIC50) in data set [8] (setting [19]) was 4.82. Moreover, the inhibition at 50 µM in data set [8] (setting [20]) was determined as 70%. The “Inhibition of SrrB' phosphorylation” value in [9] amounted to 5%. Moreover, the CC50 in [12] (Vero cells) is less than 200 µM; in [13], 152 µM. The hemolysis at 1 h in [10] (setting [21]) is 0.5%; in [10] (setting [22]), less than 0.1%.
On to `CCOc1cccc(N2C(=O)/C(=C\c3ccc(OCc4ccc(F)cc4)c(Br)c3)C(=O)NC2=S)c1` [Compound 6], for which the MIC in data set [1] (ATCC12228, read-out: MICs) was 100 µM (≈ 55.5 µg/mL); in data set [1] (ATCC12228, read-out: Minimal inhibitory concentration (MIC)), 100 µM (≈ 55.5 µg/mL); in [2] (RP62A), 100 µM (≈ 55.5 µg/mL); in data set [3] (ATCC29213, read-out: Minimal inhibitory concentration (MIC)), more than 200 µM. Besides, in data set [14], the “Binding to the YycG' protein” value was “only bound very poorly”. Moreover, in [8], the pIC50 was less than 3.70. Moreover, the inhibition at 50 µM in [8] was approximately 7%. The same molecule had a CC50 in [12] of more than 200 µM. Also, the hemolysis at 1 h in [10] (at 4 × MIC (number in parenthesis)) came out at 2.3%; in [10] (at MIC for S. epidermidis ATCC12228) it was 1.1%.

The values above are taken from PMC1660542, “Structure-based discovery of inhibitors of the YycG histidine kinase: New chemical leads to combat Staphylococcus epidermidis infections” (BMC Microbiology, 2006).
